Key:
HS 578T = settings: 48 h
[1] = Homo sapiens, 48 h, read-out: LC50

COc1cc2c(c(OC)c1OC)-c1ccc(NNC(N)=S)c(=O)cc1C(NC(C)=O)CC2 [Compound 2, N-[(aS,7S)-10-(2-carbamothioylhydrazinyl)-1,2,3-trimethoxy-9-oxo-5,6,7,9-tetrahydrobenzo[a]heptalen-7-yl]acetamide monohydrate × ⅔ (ethyl acetate)]
GI50 (LOX IMVI; Homo sapiens, 48 h): 0.71 µM | CC50 (LOX IMVI; [1]): > 100 µM | TGI (LOX IMVI; melanoma, wild-type p53, 48 h): > 100 µM | TGI (HCT-15; HCT-15, colon cancer, mutant p53, 48 h): > 100 µM | GI50 (HCT-15; Homo sapiens, HCT-15, 48 h): 4.03 µM | CC50 (HCT-15; Homo sapiens, HCT-15, 48 h, read-out: LC50): > 100 µM | GI50 (UO-31; Homo sapiens, UO-31, 48 h): > 100 µM | CC50 (UO-31; Homo sapiens, UO-31, 48 h, read-out: LC50): > 100 µM | TGI (UO-31; UO-31, renal cancer, wild-type p53, 48 h): > 100 µM | GI50 (NCI-H460; Homo sapiens, NCI-H460, 48 h): 0.429 µM | CC50 (NCI-H460; Homo sapiens, NCI-H460, 48 h, read-out: LC50): > 100 µM | TGI (NCI-H460; NCI-H460, non-small-cell lung cancer, wild-type p53, 48 h): > 100 µM | GI50 (RPMI-8226; Homo sapiens, RPMI-8226, 48 h): 0.349 µM | CC50 (RPMI-8226; Homo sapiens, RPMI-8226, 48 h, read-out: LC50): > 100 µM | TGI (RPMI-8226; RPMI-8226, leukemia, mutant p53, 48 h): 8.65 µM | TGI (HCT-116; HCT-116, colon cancer, wild-type p53, 48 h): 10.6 µM | GI50 (HCT-116; Homo sapiens, HCT-116, 48 h): 0.377 µM | CC50 (HCT-116; Homo sapiens, HCT-116, 48 h, read-out: LC50): > 100 µM | TGI (COLO 205; COLO 205, colon cancer, mutant p53, 48 h): 0.622 µM | GI50 (COLO 205; Homo sapiens, COLO 205, 48 h): 0.28 µM | CC50 (COLO 205; Homo sapiens, COLO 205, 48 h, read-out: LC50): 9.13 µM | GI50 (NCI-H522; Homo sapiens, NCI-H522, 48 h): 0.55 µM | CC50 (NCI-H522; Homo sapiens, NCI-H522, 48 h, read-out: LC50): > 100 µM | TGI (NCI-H522; NCI-H522, non-small-cell lung cancer, mutant p53, 48 h): > 100 µM | GI50 (NCI-H226; Homo sapiens, NCI-H226, 48 h): 1.74 µM | CC50 (NCI-H226; Homo sapiens, NCI-H226, 48 h, read-out: LC50): > 100 µM | TGI (NCI-H226; NCI-H226, non-small-cell lung cancer, p53 Lit. inconclusive, 48 h): > 100 µM | GI50 (SN12C; Homo sapiens, 48 h): 0.828 µM | CC50 (SN12C; [1]): > 100 µM | TGI (SN12C; renal cancer, mutant p53, 48 h): > 100 µM | GI50 (MOLT-4; Homo sapiens, MOLT-4, 48 h): 0.548 µM | CC50 (MOLT-4; Homo sapiens, MOLT-4, 48 h, read-out: LC50): > 100 µM | TGI (MOLT-4; MOLT-4, leukemia, mutant p53, 48 h): > 100 µM | GI50 (OVCAR-8; Homo sapiens, OVCAR-8, 48 h): 0.97 µM | CC50 (OVCAR-8; Homo sapiens, OVCAR-8, 48 h, read-out: LC50): > 100 µM | TGI (OVCAR-8; OVCAR-8, ovarian cancer, mutant p53, 48 h): > 100 µM | GI50 (M14; Homo sapiens, M14, 48 h): 0.284 µM | CC50 (M14; Homo sapiens, M14, 48 h, read-out: LC50): > 100 µM | TGI (M14; M14, melanoma, mutant p53, 48 h): 0.735 µM | GI50 (SK-MEL-2; Homo sapiens, SK-MEL-2, 48 h): > 100 µM | CC50 (SK-MEL-2; Homo sapiens, SK-MEL-2, 48 h, read-out: LC50): > 100 µM | TGI (SK-MEL-2; SK-MEL-2, melanoma, mutant p53, 48 h): > 100 µM | GI50 (OVCAR-5; Homo sapiens, OVCAR-5, 48 h): 9.67 µM | CC50 (OVCAR-5; Homo sapiens, OVCAR-5, 48 h, read-out: LC50): > 100 µM | TGI (OVCAR-5; OVCAR-5, ovarian cancer, p53 Lit. inconclusive, 48 h): > 100 µM | TGI (A498; A498, renal cancer, wild-type p53, 48 h): > 100 µM | GI50 (A498; Homo sapiens, A498, 48 h): 2.09 µM | CC50 (A498; Homo sapiens, A498, 48 h, read-out: LC50): > 100 µM | GI50 (SF-268; Homo sapiens, SF-268, 48 h): 0.581 µM | CC50 (SF-268; Homo sapiens, SF-268, 48 h, read-out: LC50): > 100 µM | TGI (SF-268; SF-268, CNS cancer (brain tumor), mutant p53, 48 h): > 100 µM | GI50 (MCF7; Homo sapiens, MCF7, 48 h): 0.415 µM | CC50 (MCF7; Homo sapiens, MCF7, 48 h, read-out: LC50): > 100 µM | TGI (MCF7; MCF7, breast cancer, wild-type p53, 48 h): > 100 µM | TGI (DU-145; DU-145, prostate cancer, mutant p53, 48 h): 1.44 µM | GI50 (DU-145; Homo sapiens, DU-145, 48 h): 0.341 µM | CC50 (DU-145; Homo sapiens, DU-145, 48 h, read-out: LC50): > 100 µM | GI50 (TK-10; Homo sapiens, TK-10, 48 h): 6.77 µM | CC50 (TK-10; Homo sapiens, TK-10, 48 h, read-out: LC50): > 100 µM | TGI (TK-10; TK-10, renal cancer, mutant p53, 48 h): > 100 µM | GI50 (OVCAR-3; Homo sapiens, OVCAR-3, 48 h): 0.217 µM | TGI (OVCAR-3; OVCAR-3, ovarian cancer, mutant p53, 48 h): 0.459 µM | GI50 (MDA-MB-231; Homo sapiens, MDA-MB-231, 48 h): 0.359 µM | CC50 (MDA-MB-231; Homo sapiens, MDA-MB-231, 48 h, read-out: LC50): > 100 µM | TGI (MDA-MB-231; MDA-MB-231, breast cancer, mutant p53, 48 h): 1.88 µM | GI50 (SF-295; Homo sapiens, SF-295, 48 h): 0.549 µM | CC50 (SF-295; Homo sapiens, SF-295, 48 h, read-out: LC50): > 100 µM | TGI (SF-295; SF-295, CNS cancer (brain tumor), mutant p53, 48 h): > 100 µM | GI50 (SF-539; Homo sapiens, SF-539, 48 h): 0.418 µM | CC50 (SF-539; Homo sapiens, SF-539, 48 h, read-out: LC50): > 100 µM | TGI (SF-539; SF-539, CNS cancer (brain tumor), mutant p53, 48 h): 20.5 µM | GI50 (UACC-62; Homo sapiens, UACC-62, 48 h): 0.625 µM | CC50 (UACC-62; Homo sapiens, UACC-62, 48 h, read-out: LC50): > 100 µM | TGI (UACC-62; UACC-62, melanoma, wild-type p53, 48 h): > 100 µM | GI50 (SNB-75; Homo sapiens, SNB-75, 48 h): 0.441 µM | CC50 (SNB-75; Homo sapiens, SNB-75, 48 h, read-out: LC50): > 100 µM | TGI (SNB-75; SNB-75, CNS cancer (brain tumor), mutant p53, 48 h): > 100 µM | TGI (HS 578T; HS 578T, breast cancer, mutant p53): > 100 µM | GI50 (HS 578T; Homo sapiens, Hs-578T): > 100 µM | CC50 (HS 578T; Homo sapiens, Hs-578T, read-out: LC50): > 100 µM

Source: article PMC10892984, “Novel Antineoplastic Inducers of Mitochondrial Apoptosis in Human Cancer Cells” (Molecules, 2024)
